# Assay results published in patent US11224223B2, “Feeding deterrence of pests such as Hemiptera, Lepidoptera and Coleoptera” (BEDOUKIAN RESEARCH, INC., priority 2012, dated 2022).
# Experiments:
# Assay type in all cases: in vivo
# Codling Moth larvae = assay: Repellency as feeding deterrence and mortality in Codling Moth larvae on treated media; conditions: for Repellency at 24 hours: first instar larva, control 8%
# Method: Another test was designed to measure the repellency as feeding deterrence in Codling Moth larvae. The treatment was applied to the surface of a proprietary laboratory media in a tray with wells for each compound. The media was allowed to dry for 30-60 minutes so that larvae were not exposed to it as a liquid. One first instar codling moth larva was then placed on the treated media. The cover film was placed on the tray to prevent escapes. Ten additional replicates treated with a 57% ethanol solution were prepared to serve as controls. […] After the 24 hour reading, the larvae were extracted from the media to record any mortality.
# Mortality observations were also made for the above protocol. The control was the 57% ethanol:43% water solution.
# Aphis gossypii = assay: Melon aphid repellency on leaf choice assays; conditions: 3% compound in a Triton X:Water solution; n=100; control 50/50
# Source text: Melon Aphid Repellency on Leaf Choice Assays Aphis gossypii are maintained on squash plants. Individual aphids (n=100) are given the choice between leaves with and without repellent treatments. A separate group of aphids are given a choice between untreated vs. untreated leaves as a control. The number of aphids choosing each leaf is counted both choice tests. The number of aphids choosing each treatment is compared to the control to determine the repellent effect.
# psyllids = assay: Psyllid repellency on potato choice assays; conditions: 3% compound; potato plants; 100 psyllids per cage; control 50/50
# Source text: Psyllid Repellency on Potato Choice Assays
# (§1) Potato plants are sprayed with either a 3% solution of repellent chemical in a 5%:95% ETOH:Water or only 5%:95% ETOH:Water as a control. Two plants are placed in a screen cage, either a treatment vs control tree or a control vs control tree, 100 psyllids are released into each cage. The number of psyllids choosing each leaf is counted for both choice tests. The number of psyllids choosing each treatment is compared to the control to determine if there is a repellent effect.
# sharpshooters = assay: Leafhopper repellency on citrus choice assays; conditions: 3% compound; citrus seedlings; 100 sharpshooters per cage; control 50/50
# Source text: as §1, with “Leafhopper Repellency on Citrus Choice Assays Citrus seedlings” for “Potato plants”, “seedlings” for “plants”, “tree.” for “tree,”, “sharpshooters” for “psyllids”
# [1] = system: Euschistus heros-Neotropical Brown Stink Bugs; assay: Stink bug feeding damage on soybean pods; conditions: 3% compound, soybean plants at R6 stage, 48 hours
# Method: To compare the feeding/resting preference of stink bug adults for different plant parts, 10 pots with soybean plants at the R6 (pod-filling) stage of development are used. 5 pots of soybeans are sprayed with 3% of treatment in a 2% Triton X:water solution and 5 pots of soybean are treated with 2% Triton X:water solution as controls. Thirty stink bugs are placed individually in each cage and allowed to feed for 48 hours. Insects are removed and plant parts are collected for visual analysis of damage. Feeding damage on the pods is counted for both treatments. The selective antifeeding rate (%) formula is [(C−T)/(C+T)]×100, and the non-selective antifeeding rate (%) formula is [(C−T)/C)]×100, where C and T are the numbers of feeding damages on the control and treated plant pods, respectively.
# [2] = system: Leptinotarsa decemlineata-Colorado Potatoe Beetles; assay: Choice feeding assay on potato leaf disks; conditions: 3% compound, larvae, 24 h
# Method: For choice feeding assays, 3% alcohol solutions of the tested compounds are prepared. Disks (4.0 cm in diameter) are cut from potato leaves and are dipped in the test solutions or alcohol alone as a control. After the complete evaporation of the solvent, the disks are offered to 10 larvae. Control and treated disks are placed at alternate corners in Petri dishes (150 by 20 mm) lined with moistened filter paper (choice test). All dishes are placed in an incubator. Four replicates and 40 larva are used for each chemical. In each replicate, the insects are allowed to feed ad libitum for 24 h at 24 C under a 16:8 (L:D) photoperiod. After 24 h, the remaining uneaten area of each potato leaf disk is measured using a scanner and software. The selective antifeeding rate (%) formula is [(C−T)/(C+T)]×100, and the non-selective antifeeding rate (%) formula is [(C−T)/C)]×100, where C and T are the areas consumed by the control and treated leaf disks, respectively.
# Popillia japonica = assay: Japanese beetle feeding damage on basil; conditions: 3% compound; basil leaf disks; adult beetle; 24 h
# Method: Japanese Beetle Feeding Damage on Basil For choice feeding assays, 3% alcohol solutions of the tested compounds are prepared. Disks (4.0 cm in diameter) are cut from basil leaves and are dipped in the test solutions or alcohol alone as a control. After the complete evaporation of the solvent, the disks are offered to 1 adult beetle. All dishes are placed in an incubator. Four replicates are used for each chemical. After 24 h, the remaining uneaten area of each basil leaf disk is measured using a scanner and software. The selective antifeeding rate (%) formula is [(C−T)/(C+T)]×100, and the non-selective antifeeding rate (%) formula is [(C−T)/C)]×100, where C and T are the areas consumed by the control and treated leaf disks, respectively.
# Dermestid spp. = assay: Dermestid beetle feeding damage on silk fabric; conditions: 3% compound; undyed silk disks; late instar larvae; 1 week
# Method: Dermestid Beetle Feeding Damage on Silk Fabric
# For feeding assays, 3% alcohol solutions of the tested compounds are prepared. Disks (4.0 cm in diameter) of undyed silk fabric are dipped in the test solutions or alcohol alone as a control. After the complete evaporation of the solvent, the disks are offered to 10 late instar larvae. All dishes are placed in an incubator. Four replicates are used for each chemical. After 1 week, the remaining uneaten area of each silk disk is measured using a scanner and software. The selective antifeeding rate (%) formula is [(C−T)/(C+T)]×100, and the non-selective antifeeding rate (%) formula is [(C−T)/C)]×100, where C and T are the areas consumed by the control and treated silk disks, respectively.
# Tineola spp. = assay: Clothes moth feeding damage on silk fabric, choice test; conditions: 3% compound; silk disks; late instar larvae; 24 hours; control 50/50
# Method: For feeding assays, 3% alcohol solutions of the tested compounds are prepared. Disks (2.0 cm in diameter) of undyed silk fabric are dipped in the test solutions or alcohol alone as a control. After the complete evaporation of the solvent, the disks are presented in a choice test to 10 late instar Tineola spp. larvae. All dishes are placed in an incubator in the dark. Four replicates are used for each chemical. After 24 hours, the number of individuals choosing to feed on each disk are counted.
# Plodia interpunctella = assay: Feeding repellent assay for Indian meal moth larva on treated rice; conditions: 10% compound in a 5% Ethanol:95% water solution, third instar larvae, 1 week
# Method: (§2) Feeding Repellent Assay for Indian Meal Moth Larva One gram of rice is weighed and treated with 2% by weight of each test chemical or ethanol as a control for each treatment and replicate. The grains are allowed to dry and then weighed again. Treated or control rice grains are placed in a petri dish. Third instar larvae are starved for 8 h and gently introduced into the center of each compartment. 20 larva are screened per treatment, and each experiment is repeated three times. The weight of rice grains is measured again after 1 week. The selective antifeeding rate (%) formula is [(C−T)/(C+T)]×100, and the non-selective antifeeding rate (%) formula is [(C−T)/C)]×100, where C and T are the areas consumed by the control and treated leaf disks, respectively.
# Sitostroga cerealella = assay: Feeding repellent assay for Angoumois larva on treated rice; conditions: 10% compound in a 5% Ethanol:95% water solution, third instar larvae, 1 week
# Method: Feeding Repellent Assay for Angoumois Larva
# as §2, with “One” for “Feeding Repellent Assay for Indian Meal Moth Larva One”
# [3] = system: brown marmorated stink bugs (BMSB); assay: Repellency as feeding deterrence in brown marmorated stink bugs, treated filter paper with green bean; conditions: control 38%
# Method: A test was designed to measure the repellency as feeding deterrence in brown marmorated stink bugs (BMSB). Five replicates of 5 BMSBs were introduced into test arenas, containing one 60 mm×15 mm Petri dish with treated filter papers in which a food source (green bean) was attached, at the start of the test. The small Petri dishes containing the treated filter paper and food source were covered with a fitted Petri dish lid in between observation times, and were removed 5 minutes before each observation time to prevent stink bugs from feeding until sated. The distribution of the BMSBs was observed and documented hourly for 5 hours.
# [4] = compound at 3.5% in a 57% Ethanol:43% water solution
# [5] = compound at 2.5% in a 57% Ethanol:43% water solution
smiles,measurement,setting,value
CCCCCCCC1CC(=O)C=C(C)C1 (centres unmarked) [3-Methyl-5-Heptyl-2-Cyclohexenone],Increased Mortality over Control Mortality at 24 hours,Codling Moth larvae; [4],93%
same,Repellency at 24 hours,Codling Moth larvae; [4],95%
CCCC1CC(C)=CC(O)C1 (centres unmarked) [3-Methyl-5-Propyl-2-Cyclohexenol],Increased Mortality over Control Mortality at 24 hours,Codling Moth larvae; [4],9%
same,Repellency at 24 hours,Codling Moth larvae; [4],30%
CC(C)=CCC/C(C)=C/CC1CCCC1O (centres unmarked) [Apritol],Number of Aphids Choosing each Treatment: Treated,Aphis gossypii,30
same,Number of Aphids Choosing each Treatment: Untreated,Aphis gossypii,70
same,Number of Psyllids Choosing each Treatment: Treated,psyllids,30
same,Number of Psyllids Choosing each Treatment: Untreated,psyllids,70
same,Number of Psyllids Choosing each Treatment: Treated,sharpshooters,30
same,Number of Psyllids Choosing each Treatment: Untreated,sharpshooters,70
same,% Antifeedent Activity,[1],60%
same,% Repellency,[2],15%
same,% Repellency,Popillia japonica,15%
same,% Repellency,Dermestid spp.,15%
same,Individuals choosing to feed on each disk: Treated,Tineola spp.,20
same,Individuals choosing to feed on each disk: Untreated,Tineola spp.,80
same,% Antifeedent Activity,Plodia interpunctella,70%
same,% Antifeedent Activity,Sitostroga cerealella,70%
"CC(C)=CCC/C(C)=C/CC1CCCC1=O (centres unmarked) [Apritone, apritone]",Number of Aphids Choosing each Treatment: Treated,Aphis gossypii,30
same,Number of Aphids Choosing each Treatment: Untreated,Aphis gossypii,70
same,Number of Psyllids Choosing each Treatment: Treated,psyllids,30
same,Number of Psyllids Choosing each Treatment: Untreated,psyllids,70
same,Number of Psyllids Choosing each Treatment: Treated,sharpshooters,30
same,Number of Psyllids Choosing each Treatment: Untreated,sharpshooters,70
same,% Antifeedent Activity,[1],60%
same,% Repellency,[2],15%
same,% Repellency,Popillia japonica,15%
same,% Repellency,Dermestid spp.,15%
same,Individuals choosing to feed on each disk: Treated,Tineola spp.,20
same,Individuals choosing to feed on each disk: Untreated,Tineola spp.,80
same,% Antifeedent Activity,Plodia interpunctella,70%
same,% Antifeedent Activity,Sitostroga cerealella,70%
CCCCCCCC1CCCC(=O)O1 (centres unmarked) [Delta-dodecalactone],Number of Aphids Choosing each Treatment: Treated,Aphis gossypii,20
same,Number of Aphids Choosing each Treatment: Untreated,Aphis gossypii,80
same,Number of Psyllids Choosing each Treatment: Treated,psyllids,20
same,Number of Psyllids Choosing each Treatment: Untreated,psyllids,80
same,Number of Psyllids Choosing each Treatment: Treated,sharpshooters,20
same,Number of Psyllids Choosing each Treatment: Untreated,sharpshooters,80
same,% Antifeedent Activity,[1],80%
same,% Repellency,[2],40%
same,% Repellency,Popillia japonica,40%
same,% Repellency,Dermestid spp.,40%
same,Individuals choosing to feed on each disk: Treated,Tineola spp.,10
same,Individuals choosing to feed on each disk: Untreated,Tineola spp.,90
same,% Antifeedent Activity,Plodia interpunctella,70%
same,% Antifeedent Activity,Sitostroga cerealella,70%
CCCCCCCCC1CCC(=O)O1 (centres unmarked) [Gamma-Dodecalactone],Repellency averaged over 5 hours,[3]; [4],82%
same,Repellency at 24 hours,Codling Moth larvae; [4],46%
same,Increased Mortality over Control Mortality at 24 hours,Codling Moth larvae; in vivo,37%
CCCCCCCCCC1(C)CCC(=O)O1 (centres unmarked) [Gamma-Methyl Tridecalactone],Repellency averaged over 5 hours,[3]; [4],67%
"CCCCCC1C(=O)CCC1CC(=O)OC (stereo not drawn) [Methyl Dihydrojasmonate - High epi, Methyl Dihydrojasmonate]",Repellency averaged over 5 hours,[3]; [5],39%
"CCCCCC1C(=O)CCC1CC(=O)OC (stereo not drawn) [Methyl Dihydrojasmonate - Low epi, Methyl Dihydrojasmonate]",Repellency averaged over 5 hours,[3]; [5],58%
"CC1CCC(C(C)(C)O)C(O)C1 (centres unmarked) [Para-Menthanediol, p-Menthane-3,8-diol, reference compound]",Repellency averaged over 5 hours,[3]; [4],91%
same,Increased Mortality over Control Mortality at 24 hours,Codling Moth larvae; [4],3%
same,Repellency at 24 hours,Codling Moth larvae; [4],10%
CCCCCC1C(=O)CCC1CC(=O)OCC=C(C)C (centres unmarked) [Prenyl Dihydrojasmonate],Increased Mortality over Control Mortality at 24 hours,Codling Moth larvae; [4],34%
same,Repellency at 24 hours,Codling Moth larvae; [4],79%
"CCCCCC1C(=O)CCC1CC(=O)OCCC (stereo not drawn) [Propyl Dihydrojasmonate - High epi, Propyl Dihydrojasmonate]",Repellency averaged over 5 hours,[3]; [5],49%
"CCCCCC1C(=O)CCC1CC(=O)OCCC (stereo not drawn) [Propyl Dihydrojasmonate - Low epi, Propyl Dihydrojasmonate]",Repellency averaged over 5 hours,[3]; [5],74%
